Results published in article PMC10175918 (Communications Biology, 2023).
Read-outs that look alike come from different tables or passages of the source.

Tests used:
Assay in all cases: TGFα-shedding assay-based GPCR screening with chimeric Gα subunit proteins
Type in all cases: cell-based
[1] = target: 348 GPCRs (Homo sapiens, UniProt P25021); conditions: 10µM, Favipiravir 100μM
[2] = target: T1, 348 GPCRs (Homo sapiens, UniProt P41586); conditions: 10µM, Favipiravir 100μM
T1 construct: expressed in transfected cells; host or cells: HEK293A
T1 sequence (P41586 21-468): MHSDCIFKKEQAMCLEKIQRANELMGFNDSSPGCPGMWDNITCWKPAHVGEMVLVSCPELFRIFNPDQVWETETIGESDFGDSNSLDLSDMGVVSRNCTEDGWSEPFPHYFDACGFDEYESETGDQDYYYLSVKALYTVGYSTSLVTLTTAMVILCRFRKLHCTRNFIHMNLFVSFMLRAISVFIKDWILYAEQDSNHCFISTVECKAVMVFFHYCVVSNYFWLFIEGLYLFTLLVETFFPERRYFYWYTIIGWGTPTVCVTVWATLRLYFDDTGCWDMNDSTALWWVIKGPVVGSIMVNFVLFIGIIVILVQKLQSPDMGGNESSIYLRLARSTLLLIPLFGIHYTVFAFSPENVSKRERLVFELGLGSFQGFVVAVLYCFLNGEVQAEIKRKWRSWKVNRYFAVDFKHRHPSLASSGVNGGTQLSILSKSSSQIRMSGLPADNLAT

[3] = target: T2, 348 GPCRs (Homo sapiens, UniProt Q8NFN8); conditions: 10µM, Favipiravir 100μM
T2 construct: expressed in transfected cells; host or cells: HEK293A
T2 sequence (Q8NFN8 1-814): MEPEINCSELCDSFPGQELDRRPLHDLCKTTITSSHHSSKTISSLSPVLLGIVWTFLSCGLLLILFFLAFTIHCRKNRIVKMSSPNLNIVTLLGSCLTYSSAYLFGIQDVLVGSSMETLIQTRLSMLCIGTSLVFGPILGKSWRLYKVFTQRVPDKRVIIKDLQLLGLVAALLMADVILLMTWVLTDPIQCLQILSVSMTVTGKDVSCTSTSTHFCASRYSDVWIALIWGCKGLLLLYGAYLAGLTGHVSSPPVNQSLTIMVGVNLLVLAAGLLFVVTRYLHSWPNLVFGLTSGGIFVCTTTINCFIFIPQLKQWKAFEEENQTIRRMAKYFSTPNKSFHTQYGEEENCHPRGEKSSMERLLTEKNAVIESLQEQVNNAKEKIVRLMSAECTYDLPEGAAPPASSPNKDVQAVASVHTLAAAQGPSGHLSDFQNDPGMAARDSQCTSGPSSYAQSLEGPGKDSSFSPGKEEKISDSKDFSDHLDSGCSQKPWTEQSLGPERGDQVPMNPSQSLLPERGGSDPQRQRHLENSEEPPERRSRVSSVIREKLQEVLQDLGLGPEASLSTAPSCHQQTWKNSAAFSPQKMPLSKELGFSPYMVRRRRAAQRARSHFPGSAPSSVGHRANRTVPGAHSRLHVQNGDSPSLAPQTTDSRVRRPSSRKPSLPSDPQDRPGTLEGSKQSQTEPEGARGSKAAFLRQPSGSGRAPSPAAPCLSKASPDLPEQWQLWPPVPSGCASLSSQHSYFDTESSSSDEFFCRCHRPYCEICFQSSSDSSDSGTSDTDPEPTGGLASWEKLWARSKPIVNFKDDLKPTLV

[4] = target: T3, 348 GPCRs (Homo sapiens, UniProt O00398)
T3 construct: expressed in transfected cells; host or cells: HEK293A

[5] = target: T4, 348 GPCRs (Homo sapiens, UniProt Q8NGU9); conditions: 10µM, Favipiravir 100μM
T4 construct: expressed in transfected cells; host or cells: HEK293A

[6] = target: T5, 348 GPCRs (Homo sapiens, UniProt P60893); conditions: 10µM, Favipiravir 100μM
T5 construct: expressed in transfected cells; host or cells: HEK293A

[7] = target: T6, 348 GPCRs (Homo sapiens, UniProt O14626); conditions: 10µM, Favipiravir 100μM
T6 construct: expressed in transfected cells; host or cells: HEK293A
T6 sequence (O14626 1-319): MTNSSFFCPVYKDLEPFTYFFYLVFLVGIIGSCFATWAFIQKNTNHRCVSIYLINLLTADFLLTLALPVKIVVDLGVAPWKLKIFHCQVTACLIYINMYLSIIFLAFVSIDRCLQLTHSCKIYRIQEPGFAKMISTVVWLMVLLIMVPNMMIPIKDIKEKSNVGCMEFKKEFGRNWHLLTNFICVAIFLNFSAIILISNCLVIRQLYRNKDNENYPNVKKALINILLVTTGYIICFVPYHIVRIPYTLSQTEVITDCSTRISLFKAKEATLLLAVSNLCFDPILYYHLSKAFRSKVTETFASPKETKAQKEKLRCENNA

[8] = target: T7, 348 GPCRs (Homo sapiens, UniProt Q9NS67); conditions: 10µM, Favipiravir 100μM
T7 construct: expressed in transfected cells; host or cells: HEK293A

[9] = target: T8, 348 GPCRs (Homo sapiens, UniProt P51684); conditions: 10µM, Favipiravir 100μM
T8 construct: expressed in transfected cells; host or cells: HEK293A
T8 sequence (P51684 1-374): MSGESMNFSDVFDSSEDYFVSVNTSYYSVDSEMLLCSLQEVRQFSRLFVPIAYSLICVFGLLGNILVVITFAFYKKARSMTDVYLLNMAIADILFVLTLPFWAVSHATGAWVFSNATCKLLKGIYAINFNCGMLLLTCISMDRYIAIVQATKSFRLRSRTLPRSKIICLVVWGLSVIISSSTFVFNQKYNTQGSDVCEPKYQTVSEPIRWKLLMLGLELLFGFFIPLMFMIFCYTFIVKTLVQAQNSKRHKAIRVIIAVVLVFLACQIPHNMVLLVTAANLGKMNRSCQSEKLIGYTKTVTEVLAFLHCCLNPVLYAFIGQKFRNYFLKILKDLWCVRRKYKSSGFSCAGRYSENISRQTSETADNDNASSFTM

[10] = H2 (histamine receptor H2), read-out: % GPCR activation compared to TPA
[11] = ADCYAP1 (ADCYAP receptor type I), read-out: % GPCR activation compared to TPA
[12] = GPR156 (G protein-coupled receptor 156), read-out: % GPCR activation compared to TPA
[13] = GPCR P2RY10 (purinergic receptor P2Y, G-protein coupled, 10), read-out: % GPCR activation compared to TPA
[14] = GPR150 (G protein-coupled receptor 150), read-out: % GPCR activation compared to TPA
[15] = GPR85 (G protein-coupled receptor 85), read-out: % GPCR activation compared to TPA
[16] = GPR171 (G Protein-Coupled Receptor 171), read-out: % GPCR activation compared to TPA
[17] = GPR27 (G Protein-Coupled Receptor 27), read-out: % GPCR activation compared to TPA
[18] = CCR6 (C-C motif chemokine receptor 6), read-out: % GPCR activation compared to TPA
[19] = read-out: % GPCR activation compared to TPA, H2 (histamine receptor H2)
[20] = read-out: % GPCR activation compared to TPA, ADCYAP1 (ADCYAP receptor type I)
[21] = read-out: % GPCR activation compared to TPA, GPR156 (G protein-coupled receptor 156)
[22] = read-out: % GPCR activation compared to TPA, GPCR P2RY10 (purinergic receptor P2Y, G-protein coupled, 10)
[23] = read-out: % GPCR activation compared to TPA, GPR150 (G protein-coupled receptor 150)
[24] = read-out: % GPCR activation compared to TPA, GPR85 (G protein-coupled receptor 85)
[25] = read-out: % GPCR activation compared to TPA, GPR171 (G Protein-Coupled Receptor 171)
[26] = read-out: % GPCR activation compared to TPA, GPR27 (G Protein-Coupled Receptor 27)
[27] = read-out: % GPCR activation compared to TPA, CCR6 (C-C motif chemokine receptor 6)

T3 sequence (O00398 whole entry): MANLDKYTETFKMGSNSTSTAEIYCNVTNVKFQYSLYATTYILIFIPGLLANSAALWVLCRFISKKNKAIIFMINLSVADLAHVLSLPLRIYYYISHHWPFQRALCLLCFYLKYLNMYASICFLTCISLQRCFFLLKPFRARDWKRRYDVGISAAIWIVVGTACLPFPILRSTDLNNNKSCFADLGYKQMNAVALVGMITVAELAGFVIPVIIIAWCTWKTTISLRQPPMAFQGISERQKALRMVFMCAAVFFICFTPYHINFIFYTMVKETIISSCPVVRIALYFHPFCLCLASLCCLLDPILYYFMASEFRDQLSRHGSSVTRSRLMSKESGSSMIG
T5 sequence (P60893 whole entry): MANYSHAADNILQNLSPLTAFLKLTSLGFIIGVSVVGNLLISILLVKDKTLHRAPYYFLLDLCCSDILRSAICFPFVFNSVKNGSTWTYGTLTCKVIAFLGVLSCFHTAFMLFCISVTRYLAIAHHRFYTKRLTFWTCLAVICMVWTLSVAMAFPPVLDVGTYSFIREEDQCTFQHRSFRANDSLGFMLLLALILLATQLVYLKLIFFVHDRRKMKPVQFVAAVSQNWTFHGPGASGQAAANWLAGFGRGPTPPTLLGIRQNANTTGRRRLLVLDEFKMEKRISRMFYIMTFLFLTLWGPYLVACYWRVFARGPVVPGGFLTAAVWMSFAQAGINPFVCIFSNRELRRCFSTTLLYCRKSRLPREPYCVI
T7 sequence (Q9NS67 whole entry): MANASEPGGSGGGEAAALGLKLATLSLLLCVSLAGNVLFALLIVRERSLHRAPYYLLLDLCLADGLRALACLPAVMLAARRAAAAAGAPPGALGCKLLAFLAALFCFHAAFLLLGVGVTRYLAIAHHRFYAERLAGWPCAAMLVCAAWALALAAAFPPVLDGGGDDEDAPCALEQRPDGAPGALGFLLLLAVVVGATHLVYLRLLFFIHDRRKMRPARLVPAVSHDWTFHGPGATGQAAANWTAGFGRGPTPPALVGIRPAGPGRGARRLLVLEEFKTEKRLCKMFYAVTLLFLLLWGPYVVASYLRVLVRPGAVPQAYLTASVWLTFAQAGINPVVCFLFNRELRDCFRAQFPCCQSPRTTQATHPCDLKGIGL
T4 sequence (Q8NGU9 whole entry): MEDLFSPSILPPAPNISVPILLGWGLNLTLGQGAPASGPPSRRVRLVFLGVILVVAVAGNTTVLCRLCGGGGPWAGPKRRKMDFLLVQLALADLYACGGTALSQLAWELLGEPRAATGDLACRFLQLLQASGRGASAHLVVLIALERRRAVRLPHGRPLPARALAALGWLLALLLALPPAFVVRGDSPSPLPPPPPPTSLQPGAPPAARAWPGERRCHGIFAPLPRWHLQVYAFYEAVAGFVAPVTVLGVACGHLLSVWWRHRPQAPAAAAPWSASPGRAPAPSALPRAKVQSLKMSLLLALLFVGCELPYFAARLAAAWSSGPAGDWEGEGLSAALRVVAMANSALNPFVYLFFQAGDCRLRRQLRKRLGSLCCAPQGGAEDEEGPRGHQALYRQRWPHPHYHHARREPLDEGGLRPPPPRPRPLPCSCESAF
348 GPCRs (Homo sapiens, UniProt P25021), sequence (P25021 whole entry): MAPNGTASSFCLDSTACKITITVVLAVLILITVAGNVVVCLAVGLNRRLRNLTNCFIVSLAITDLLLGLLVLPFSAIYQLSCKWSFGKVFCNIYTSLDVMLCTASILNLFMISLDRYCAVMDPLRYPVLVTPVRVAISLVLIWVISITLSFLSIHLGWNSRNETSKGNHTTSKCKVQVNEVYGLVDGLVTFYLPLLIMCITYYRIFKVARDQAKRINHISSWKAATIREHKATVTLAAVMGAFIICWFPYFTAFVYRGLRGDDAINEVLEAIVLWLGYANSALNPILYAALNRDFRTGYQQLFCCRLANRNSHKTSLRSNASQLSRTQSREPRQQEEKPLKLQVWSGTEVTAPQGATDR

| Structure (SMILES) | activation at 10 µM [1, 10] [%] | activation at 100 µM [2, 11] [%] | activation at 10 µM [3, 12] [%] | activation at 10 µM [4, 13] [%] | activation at 100 µM [5, 14] [%] | activation at 100 µM [6, 15] [%] | activation at 10 µM [7, 16] [%] | activation at 100 µM [8, 17] [%] | activation at 10 µM [9, 18] [%] | activation at 100 µM ([4]; GPCR P2RY10 (purinergic receptor P2Y, G-protein coupled, 10), 100μM, read-out: % GPCR activation compared to TPA) [%] | activation at 10 µM [1, 19] [%] | activation at 100 µM [2, 20] [%] | activation at 10 µM [3, 21] [%] | activation at 10 µM [4, 22] [%] | activation at 100 µM [5, 23] [%] | activation at 100 µM [6, 24] [%] | activation at 10 µM [7, 25] [%] | activation at 100 µM [8, 26] [%] | activation at 10 µM [9, 27] [%] |
| --- | --- | --- | --- | --- | --- | --- | --- | --- | --- | --- | --- | --- | --- | --- | --- | --- | --- | --- | --- |
| CCC(CC)COC(=O)[C@H](C)N[P@](=O)(OC[C@H]1O[C@@](C#N)(c2ccc3c(N)ncnn23)[C@H](O)[C@@H]1O)Oc1ccccc1 [remdesivir] |  |  |  |  |  |  |  |  |  |  | 2.05 | 2.11 | 4.05 | -1.53 | 6.96 | 6.64 | 2.61 | 0.0845 | 2.34 |
| CC(C)OC(=O)[C@H](C)N[P@](=O)(OC[C@H]1O[C@@H](n2ccc(=O)[nH]c2=O)[C@](C)(F)[C@@H]1O)Oc1ccccc1 [sofosbuvir] |  |  |  |  |  |  |  |  |  |  | -0.476 | -0.225 | -4.51 | 0.334 | 0.239 | -3.71 | -0.832 | 1.94 | -3.43 |

Continued, in another order:

| activation at 10 µM [1, 10] [%] | activation at 100 µM [2, 11] [%] | activation at 10 µM [3, 12] [%] | activation at 10 µM [4, 13] [%] | activation at 100 µM [5, 14] [%] | activation at 100 µM [6, 15] [%] | activation at 10 µM [7, 16] [%] | activation at 100 µM [8, 17] [%] | activation at 10 µM [9, 18] [%] | activation at 100 µM ([4]; GPCR P2RY10 (purinergic receptor P2Y, G-protein coupled, 10), 100μM, read-out: % GPCR activation compared to TPA) [%] | Structure (SMILES) | activation at 10 µM [1, 19] [%] | activation at 100 µM [2, 20] [%] | activation at 10 µM [3, 21] [%] | activation at 10 µM [4, 22] [%] | activation at 100 µM [5, 23] [%] | activation at 100 µM [6, 24] [%] | activation at 10 µM [7, 25] [%] | activation at 100 µM [8, 26] [%] | activation at 10 µM [9, 27] [%] |
| --- | --- | --- | --- | --- | --- | --- | --- | --- | --- | --- | --- | --- | --- | --- | --- | --- | --- | --- | --- |
| -1.14 | 3.21 | 1.38 | -1.36 | 0.708 | 2.04 | -1.42 | 1.65 | 0.67 |  | N#C[C@@]1(c2ccc3c(N)ncnn23)O[C@H](CO)[C@@H](O)[C@H]1O [GS441524] |  |  |  |  |  |  |  |  |  |
| 0.663 | -0.29 | 2.77 |  | -0.462 | 3.44 | -0.909 | -0.296 | 0.146 | -0.745 | NC(=O)c1nc(F)cnc1O [favipiravir, 6-fluoro-3-hydroxy-2-pyrazinecarboxamide] |  |  |  |  |  |  |  |  |  |
| -0.335 | -0.597 | -4.86 | -1.61 | -6.13 | -2.83 | -2.4 | -0.612 | -2.53 |  | CC(C)C(=O)OC[C@H]1O[C@@H](n2ccc(NO)nc2=O)[C@H](O)[C@@H]1O [molnupiravir] |  |  |  |  |  |  |  |  |  |
